Results published in patent US20160008493A1, “RADIOACTIVE SUBSTRATES FOR ALDEHYDE DEHYDROGENASE” (THE JOHNS HOPKINS UNIVERSITY, priority 2013, published 2016).

Experiments:
[1] = molecular target: T1, ALDH (Mus musculus, UniProt P24549); assay: In vitro radio uptake assay for ALDH activity, L1210/cpa cells; type: cell-based, murine; details: L1210/cpa (ALDH^hi) cells; 1 μCi, 37° C., 30 mins; radioactivity (CPM) by gamma counter; FIG. 1
T1 construct: was tested for specific uptake by ALDH-expressing cell lines (K562 and L1210/cpa); endogenous in cells; host or cells: L1210/cpa
T1 sequence (P24549 1-501): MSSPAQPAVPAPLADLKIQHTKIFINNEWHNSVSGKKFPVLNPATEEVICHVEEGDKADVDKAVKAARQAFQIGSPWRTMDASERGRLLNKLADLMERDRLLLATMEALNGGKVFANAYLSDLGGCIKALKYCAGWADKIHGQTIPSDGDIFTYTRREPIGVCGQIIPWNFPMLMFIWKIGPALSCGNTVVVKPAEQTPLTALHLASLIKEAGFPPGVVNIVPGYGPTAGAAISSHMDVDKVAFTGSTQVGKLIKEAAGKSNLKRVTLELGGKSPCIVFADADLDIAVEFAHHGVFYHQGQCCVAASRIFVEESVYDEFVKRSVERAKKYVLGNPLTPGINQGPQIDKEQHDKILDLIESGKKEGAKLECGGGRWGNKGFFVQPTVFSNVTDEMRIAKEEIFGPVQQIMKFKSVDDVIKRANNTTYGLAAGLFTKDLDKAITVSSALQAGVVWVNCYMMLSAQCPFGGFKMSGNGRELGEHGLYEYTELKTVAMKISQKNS
From the text: (§1) The K562 human chronic myelogenous leukemia cell line was purchased from American Type Culture Collection (CLL-243™) and maintained in suspension in IMDM media supplemented with 10% FBS. The murine leukemia cell line L1210 (ALDH^low) and L1210/cpa (ALDH^hi) were provided by Dr. Richard J. Jones (Johns Hopkins University) and maintained in suspension in RPMI 1640 supplemented with 10% FBS. Human glioma cell line, U87-tri was provided by Dr. John Laterra (Kennedy Krieger Institute) and maintained in DMEM media supplemented with 10% FBS. All cells were grown at 37° C. in a humidified incubator with 5% CO2.
(§2) ^125IBz-A-DA was dissolved in 100% DMSO at 10 mCi/50 μL concentration and stored at −20° C. as stock solutions. 25 μL of a stock was deprotected by mixing with the same volume of 2N HCl for 30 mins at room temperature and the resulting aldehyde (IBz-A) were neutralized by adding 350 μL of the assay buffer (PBS supplemented with 1% FBS and 50 μM Verapamil, Sigma V4629) and immediately used.
(§3) One million cells were resuspended in the assay buffer and 1 μCi of IBz-A (with or without 1000 fold cold competitor) was added to the cell. […] Cells were resuspended in the cold assay buffer ([…]) and stored in the ice until analyzed. Cells were washed twice with cold assay buffer and the radioactivity was measured by LKB Wallac gamma counter (1282 compugamma CS).

[2] = test system: ALDH; assay: In vitro radio uptake assay for ALDH activity, K562 cells; type: cell-based, human; details: 1 μCi, 37° C., 30 mins, radioactivity (CPM) by gamma counter, FIG. 1
From the text: as §1, §2, §3

O=CCNC(=O)c1ccc([125I])cc1 [^125IBz-A]
increase of uptake compared with cells treated with DEAB (ALDH inhibitor) [1]: more than 5 fold
increase of uptake compared with cells treated with DEAB (ALDH inhibitor) [2]: more than 5 fold
